Entries after “also recorded” stand apart in the source; their conditions may differ. Where two headings read alike, the source gives them in different places. Blank lines part the entries; values can stand above or below the compound they belong to.
Columns and labels:
[1] = test system: reactive oxygen species (superoxide, hydroxyl radical); assay: Detection of reactive oxygen species in vitro, fluorescence plate reader assay (G-GO, X-XO, SIN-1 systems); assay type: biochemical
Description: FIG. 3 is a bar graph showing evaluation of SLN128 for detection of reactive oxygen species in vitro in accordance with the present disclosure. Data are shown as mean fluorescence intensity (arbitrary units)±SD, where ****p<0.0001 values are determined by an unpaired student t-test. (Abbreviations: G: Glucose; GOX: Glucose oxidase; HRP: Horseradish peroxidase; X: Xanthine; XO: Xanthine oxidase; SOD: Superoxide Dismutase; CAT: Catalase. All values are normalized to fluorescence output of untreated SLN128 (control). Please note response to HRP induced hydroxyl radical in GGO system, its mitigation with CAT; and response to HX-XO (superoxide) and its intervention with SOD.
Of note, superoxide can originate from numerous sources in vivo, including the mitochondrial electron transport chain and NADPH oxidase(s), which are activated under conditions of inflammation, ischemia, and tissue injury. […] Therefore, the ability to detect elevated ROS in patients could provide a better understanding of relationships between ROS, tissue injury, and disease staging including information on signaling cascade that promote inflammation. To measure ROS production, various methods that use colorimetry, chemiluminescence, and fluorescence have been deployed, While xanthine-xanthine oxidase (X-XO) and SIN-1 have been used for production of superoxide and nitric oxide (wherein the combination produces peroxynitrite), respectively, the glucose-glucose oxidase (G-GO) system is useful for production of hydrogen peroxide. Employing concentrations of SLN128 and G-GO, and X-XO in vitro conditions described previously, the ability of SLN-128 or 12 to detect different reactive oxygen species at 37° C. in PBS was evaluated under physiological conditions (pH 7.2) and normalized by background fluorescence output of untreated SLN128 as a control using a fluorescence plate reader assay (see e.g., FIG. 3). […] Under both conditions, oxidation of the probe was neutralized by the addition of superoxide dismutase (SOD) (see e.g., FIG. 3). […] (see e.g., FIG. 3).

[2] = Fluorescence emission of the probe before and after oxidation; assay type: physicochemical
[3] = test system: human glioblastoma U87 cells; assay: Live-cell fluorescence imaging of cellular accumulation in U87 cells; assay type: cell-based; details: for intracellular localization: U87 cells, 100× objective, with mitotracker / mitoSOX
Description: FIG. 4 includes images showing cellular accumulation of SLN128 (20 nM) in human glioblastoma (U87) cells using live-cell fluorescence imaging: intracellular localization in accordance with the present disclosure. SLN128 was incubated at 37° C. for 1 h with either mitotracker red/or mitoSOX Deep Red in human U87MG cells. Images were acquired using a 100×objective.
FIG. 5 includes images showing cellular accumulation of SLN128 (20 nM) in human glioblastoma (U87) cells using live-cell fluorescence imaging in accordance with the present disclosure. SLN128 was incubated for 1 h either with media (control), LPS treated (1 μg/mL; 3 h) or 3-nitropropionic acid (3-NP; 10 μg/mL) human U87MG cells: Images were acquired using a 20×objective.
FIG. 6 is a bar graph showing cellular accumulation of SLN128 in either serum and glucose deprived- or LPS or 3 NP-treated U87 cells in either presence or absence of resveratrol (10 μM) in accordance with the present disclosure. Images were acquired using a 20×objective (all panels represent same magnification) in live human U87 cells. While U87 control cells were plated under normal conditions, both serum-and glucose-deprived (Starvation), and LPS/3-NP treated cells were allowed to recover in presence of resveratrol) for 24 h and treated with SLN-128(20 nM) for 60 min, cell uptake was evaluated via live-cell imaging, and quantified as described earlier. Corrected Total Cell Fluorescence (CTCF)=Integrated Density-(Area of selected cell X Mean fluorescence of background readings); (mean±SD), where **p<0.01 and […] are determined by an unpaired student t-test.
Lipopolysaccharide (LPS), is an endotoxin, released from Gram-negative bacteria. Next, the ability of SLN128 to detect either LPS or 3-Nitropropionic acid (3-NP) induced ROS in human cells was evaluated through live-cell fluorescence imaging. LPS is detected by toll-like receptor 4 (TLR4), a broadly expressed pattern recognition receptor found both on different cell types, including glial cells, and neurons. TLR4 engagement triggers the generation of mitochondrial superoxide from electron transport complex I, which in turn promotes bacterial killing. LPS treatment also triggers increased cytokine and chemokine expression in brain thus driving inflammation. […] To this end, intracellular localization of SLN-128 in either the presence or absence of mitotracker deep red (control) was simulataneously assessed in either the LPS or 3-NP stimulated human glioblastoma U87 cells (see e.g., FIG. 4). […] The probe uptake was quantified as corrected total cell fluorescence (CTCF) using image J as described earlier. […] Uptake in brain and other critical organs was analyzed in terms of percent injected dose per gram of the tissue (% ID/g).

[4] = test system: microglial cells and neurons in brain sections; assay: Ex vivo fluorescence of brain sections after tail-vein injection of unlabeled SLN128 into 3-NP treated mice; assay type: in vivo; details: anti-IBA1 and anti-NeuN
Description: FIG. 11 includes images showing post PET/CT imaging in accordance with the present disclosure. SLN128 (100 μL; 1 mg/mL) was injected through tail-vein into 3NP-or saline treated mice, and brain tissue was processed as described in FIG. 10A-FIG. 10D.
Systemic administration of LPS induces oxidative stress and resulting a release of inflammatory cytokines, sustained microglial activation, and neuronal cell loss in brain areas, such as the hippocampus, cerebral cortex, substantia nigra, ventral tegmental area, and thalamus, alters the levels of neurotransmitters in adult animals, and cerebellum. Thus LPS-induced inflammation provides a useful rodent model for preclinical imaging of ^18F-SLN-128. […] Finally, the brain uptake (see e.g., FIG. 9C) derived from PET imaging also correlated with 60 min post imaging quantified uptake (see e.g., FIG. 9D) indicating potential of the radiotracer for imaging endotoxin mediated brain inflammation in vivo. Mitochondrial dysfunction is a major event in the pathogenesis of Huntington disease (HD). It has also been reported that systemic 3-NP administration leads to oxidized proteins in the striatum, as well as a massive loss of striatal neurons. To evaluate potential of ^18F-SLN-128 PET imaging for 3NP-induced ROS-mediated neurodegeneration in mice, PET/CT imaging was performed.

[5] = normal mice, cited from earlier work
[6] = PBS with 1.0% ethanol, excited with a 402 nm laser

- broad emission peak [2, 6]: 520-540 nm
- emission maximum [2, 6]: 530 nm
- enhancement of mean fluorescence intensity following oxidation ([2]; following its oxidation): 4 fold
SMILES: COc1ccc2c(c1)N(C)C(c1ccc(O)c(OCCF)c1)c1cccn1-2 (stereo not shown) [SLN128]
- reactive oxygen species detected [1]: both superoxide and hydroxyl radical
- fluorescence response in G-GO system ([1]; 37° C., PBS pH 7.2): only a slight increase in fluorescence
- response to HRP in G-GO system (hydroxyl radical) ([1]; 37° C., PBS pH 7.2, normalized to untreated SLN128): 10 fold
- detection of superoxide ([1]; xanthine oxidase/xanthine or SIN-1 with CPTIO, neutralized by SOD): ability to detect superoxide
- fluorescence in LPS- or 3-NP stimulated cells compared to untreated U87 cells ([3]; LPS or 3-NP stimulation): higher fluorescence
- intracellular localization [3]: penetrates into mitochondria of U87 cells
- intracellular localization ([3]; listed as SLN 128): maps both mitotracker and mitoSOX
- monitoring of therapeutic effect (CTCF) ([3]; presence or absence of resveratrol): ability to monitor resveratrol-induced mitigation of ROS
- localization in brain sections ex vivo [4]: localizes in microglial cells and neurons; also recorded: maps markers for microglial and neuronal cells

SMILES: CNc1ccc(/C=C/c2ccc(OCCOCCOCC[18F])cc2)cc1 [[^18F]-Florbetaben]
- brain uptake ([5]; 2 min): 4.77 % ID/g
- brain uptake ([5]; 4 h): 0.95 % ID/g
- brain uptake ratio 2 min/4 h [5]: 5.0

SMILES: CNc1ccc(/C=C/c2ccc(OCCOCCOCC[18F])nc2)cc1 [[^18F]-AVID-45, [^18F]-Florbetapir]
- brain uptake ([5]; 2 min): 7.33±1.54 % ID/g
- brain uptake ([5]; 2 h): 1.80±0.07 % ID/g
- brain uptake ratio 2 min/2 h [5]: 4.07

SMILES: COCOc1ccc(-c2c3cccn3c3ccc(OC)cc3[n+]2C)cc1OCCF.[I-] [compound 15]
- emission shift following oxidation ([2]; oxidized form): 580 nm
